Assay results taken from BindingDB's records for doi:10.1021/acs.jmedchem.0c01312 (Jinan University, 2020).

Assay: Inhibition of KRas G12C mutant in human NCI-H1792 cells assessed as antiproliferative activity incubated for 3 days by CellTiter-Glo assay

In the case of `C=CC(=O)N1CCN(C(=O)CNc2cc(I)c(Cl)cc2O)CC1`, the EC50 is reported as 320 nM.
